Calls of active or inactive are those of the source.
Columns and labels:
[1] = target: X-box-binding protein 1 (Homo sapiens, UniProt P17861); assay type: functional, Cricetulus griseus;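 note: confirmatory dose-response counter-screen serving a CHOP assay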
[2] = target: Melanin-concentrating hormone receptor 1 (Homo sapiens, UniProt Q99705); experiment: Late-stage fluorescence-based counterscreen for antagonists of the G-protein coupled receptor 7 (GPR7): cell-based dose response assay to identify antagonists of the melanin-concentrating hormone receptor 1 (MCHR1). [Related pubchem assays (depositor defined):AID1861, AID1880, AID1952, AID2148, AID2251, AID2257, AID485339]; assay type: functional;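 note: stimulated with 30 nM MCH peptide agonist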
Chain of Melanin-concentrating hormone receptor 1 (Q99705 whole entry): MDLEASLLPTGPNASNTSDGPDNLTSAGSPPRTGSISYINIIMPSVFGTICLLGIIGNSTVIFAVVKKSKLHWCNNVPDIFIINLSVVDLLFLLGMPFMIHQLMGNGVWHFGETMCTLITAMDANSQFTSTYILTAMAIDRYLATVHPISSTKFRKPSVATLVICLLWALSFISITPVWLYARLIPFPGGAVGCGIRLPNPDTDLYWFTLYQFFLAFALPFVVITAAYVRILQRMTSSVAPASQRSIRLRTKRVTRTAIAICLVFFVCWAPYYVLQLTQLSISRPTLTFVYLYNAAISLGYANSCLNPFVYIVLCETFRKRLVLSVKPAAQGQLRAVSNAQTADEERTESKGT

[3] = target: Neuropeptides B/W receptor type 1 (Homo sapiens, UniProt P48145); experiment: GPR7 antagonist potency, late-stage follow-up, cell-based, fluorescence, dose response (AID 463251); assay type: functional
Chain of Neuropeptides B/W receptor type 1 (P48145 whole entry): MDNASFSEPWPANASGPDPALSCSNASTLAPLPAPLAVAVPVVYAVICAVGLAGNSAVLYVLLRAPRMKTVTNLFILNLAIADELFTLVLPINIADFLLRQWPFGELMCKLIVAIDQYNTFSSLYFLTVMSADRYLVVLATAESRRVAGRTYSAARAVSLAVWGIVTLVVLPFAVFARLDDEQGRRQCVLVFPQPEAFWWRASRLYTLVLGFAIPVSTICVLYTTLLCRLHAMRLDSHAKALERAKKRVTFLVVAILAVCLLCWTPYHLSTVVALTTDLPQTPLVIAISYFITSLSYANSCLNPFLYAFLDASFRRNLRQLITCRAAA

[4] = target: Metabotropic glutamate receptor 4 (Rattus norvegicus, UniProt P31423); experiment: Modulation of the Metabotropic Glutamate Receptor mGluR4: Rat PAM Potency. [Related pubchem assays (depositor defined):AID2437, AID2807]; assay type: functional
Chain of Metabotropic glutamate receptor 4 (Rattus norvegicus, UniProt P31423) (P31423 whole entry): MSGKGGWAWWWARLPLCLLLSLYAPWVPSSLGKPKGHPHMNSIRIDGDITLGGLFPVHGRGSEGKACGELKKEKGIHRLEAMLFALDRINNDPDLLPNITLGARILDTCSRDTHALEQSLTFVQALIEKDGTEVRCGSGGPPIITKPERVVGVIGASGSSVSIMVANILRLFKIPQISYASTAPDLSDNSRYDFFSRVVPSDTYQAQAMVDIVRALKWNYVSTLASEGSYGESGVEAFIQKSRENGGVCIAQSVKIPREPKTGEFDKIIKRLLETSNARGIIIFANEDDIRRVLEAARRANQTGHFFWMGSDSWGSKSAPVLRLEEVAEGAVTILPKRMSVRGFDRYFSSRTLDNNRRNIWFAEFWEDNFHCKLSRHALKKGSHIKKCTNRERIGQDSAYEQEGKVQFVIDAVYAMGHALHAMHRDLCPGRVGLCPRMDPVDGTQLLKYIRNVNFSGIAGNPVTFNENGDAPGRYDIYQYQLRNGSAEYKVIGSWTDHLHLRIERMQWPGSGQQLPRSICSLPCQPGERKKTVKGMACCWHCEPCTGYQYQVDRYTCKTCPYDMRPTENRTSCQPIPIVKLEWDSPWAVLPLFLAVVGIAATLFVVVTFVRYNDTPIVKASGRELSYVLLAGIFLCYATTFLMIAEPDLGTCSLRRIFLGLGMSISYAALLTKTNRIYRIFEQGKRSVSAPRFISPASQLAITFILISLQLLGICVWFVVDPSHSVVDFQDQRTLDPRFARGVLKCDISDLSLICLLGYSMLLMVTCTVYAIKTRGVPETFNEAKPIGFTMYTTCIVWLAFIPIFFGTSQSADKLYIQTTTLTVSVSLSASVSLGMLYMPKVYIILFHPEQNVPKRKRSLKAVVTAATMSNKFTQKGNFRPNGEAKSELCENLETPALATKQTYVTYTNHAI

[5] = target: Metabotropic glutamate receptor 4 (Homo sapiens, UniProt Q14833); experiment: Modulation of the Metabotropic Glutamate Receptor mGluR4: Potency at human mGluR4. Modulation of intracellular Ca2+ using Fluo-4, AM, in CHO expressing recombinant receptor [Related pubchem assays (depositor defined):AID2437, AID2807]; assay type: functional, cell-based
Chain of Metabotropic glutamate receptor 4 (Homo sapiens, UniProt Q14833) (Q14833 whole entry): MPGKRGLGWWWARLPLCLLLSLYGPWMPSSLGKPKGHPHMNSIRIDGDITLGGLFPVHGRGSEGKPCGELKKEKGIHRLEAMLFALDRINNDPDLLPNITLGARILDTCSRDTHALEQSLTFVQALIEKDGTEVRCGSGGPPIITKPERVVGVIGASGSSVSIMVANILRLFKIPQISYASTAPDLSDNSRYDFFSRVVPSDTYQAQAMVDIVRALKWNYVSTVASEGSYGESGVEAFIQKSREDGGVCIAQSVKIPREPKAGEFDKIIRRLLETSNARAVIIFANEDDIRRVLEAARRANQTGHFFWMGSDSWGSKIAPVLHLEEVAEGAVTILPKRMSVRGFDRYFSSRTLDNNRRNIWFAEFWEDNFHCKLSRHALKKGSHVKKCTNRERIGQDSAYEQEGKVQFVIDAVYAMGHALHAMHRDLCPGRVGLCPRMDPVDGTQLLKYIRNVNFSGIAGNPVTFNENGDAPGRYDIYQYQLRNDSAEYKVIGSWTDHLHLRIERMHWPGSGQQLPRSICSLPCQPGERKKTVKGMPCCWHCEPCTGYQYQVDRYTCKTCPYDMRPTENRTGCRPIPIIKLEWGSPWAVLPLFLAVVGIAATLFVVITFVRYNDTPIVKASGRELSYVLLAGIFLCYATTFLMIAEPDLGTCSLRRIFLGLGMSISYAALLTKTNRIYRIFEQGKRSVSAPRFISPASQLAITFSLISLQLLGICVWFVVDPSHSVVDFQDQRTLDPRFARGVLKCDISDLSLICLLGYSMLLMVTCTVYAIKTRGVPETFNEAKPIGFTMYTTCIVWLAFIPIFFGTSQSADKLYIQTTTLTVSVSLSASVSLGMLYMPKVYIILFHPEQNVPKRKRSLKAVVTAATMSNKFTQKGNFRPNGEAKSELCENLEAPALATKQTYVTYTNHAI

[6] = cytotoxicity in HEK-293T cells, dose response, cytotoxicity control for TCR NF-kB inhibitor project, luminescence, T-cell screen hits (AID 489026); assay type: functional, cell-based;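 note: cells exposed to compound about 14 hours before the viability readout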
[7] = system: J774.A1; experiment: Confirmation of image-based Screening Assay for Inhibitors of Phagocytosis. [Related pubchem assays (depositor defined):AID1029, AID1643]; assay type: functional, cell-based; settings: Mus musculus
[8] = inhibitors of SNCA 5'UTR-driven translation, confirmation, luminescence, H4 neuroglioblastoma cells, dose confirmation (AID 2454); assay type: functional, cell-based;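 note: H4 neuroglioblastoma cells carrying an alpha-synuclein 5'UTR luciferase reporter; potency for inhibition of the luciferase signal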
[9] = cells; assay type: functional, cell-based
[10] = luciferase reporter signal reduction – luminescence, H4-C neuroglioblastoma cells, dose response (AID 2458); assay type: functional, cell-based;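 note: H4 neuroglioblastoma cells stably carrying a luciferase reporter gene fusion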
[11] = Artemis endonuclease inhibitor potency, dose response, biochemical, fluorescence intensity (AID 720701); assay type: functional;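 note: Artemis endonuclease enzyme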
[12] = cytotoxicity in HPDE-C7 cells, cell-based, fluorescence, HTS (AID 430); assay type: functional; settings: Homo sapiens
[13] = inhibitors of firefly luciferase expression or activity, dose response, H4 neuroglioma cells, luminescence (AID 1990); assay type: functional, cell-based
[14] = cytotoxicity in KRAS-transformed pancreatic duct cells, primary screen, cell-based, fluorescence, HTS (AID 431); assay type: functional; settings: Homo sapiens;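 note: cell line used: HPDE-C7K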
[15] = Luminescence Cell-Based Dose Response HTS to Identify Inhibitors of 5'UTR Stem-Loop Driven Prion Protein mRNA Translation in H4 Neuroglioblastoma Cells. [Related pubchem assays: 1827 (Project Summary), 1813 (Primary HTS)]; assay type: functional
[16] = inhibitors of SNCA 5'UTR-driven reporter translation, confirmation, H4 neuroglioma cells, luminescence (AID 1988); assay type: functional, cell-based
[17] = target: T1, Dual specificity protein phosphatase 3 (Homo sapiens, UniProt P51452); experiment: SAR VHR1 Fluorescent Assay for In Vitro dose response studies. [Related pubchem assays (depositor defined):AID1654, AID1661, AID1878, AID1992, AID2004, AID2070, AID2085]; assay type: functional
T1 sequence (P51452 whole entry): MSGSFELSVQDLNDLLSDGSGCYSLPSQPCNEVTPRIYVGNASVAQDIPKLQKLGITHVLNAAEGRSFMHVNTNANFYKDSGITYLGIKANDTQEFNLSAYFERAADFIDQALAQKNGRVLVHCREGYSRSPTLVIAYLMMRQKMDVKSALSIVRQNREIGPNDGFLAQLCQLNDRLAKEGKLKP

[18] = target: T2, Dual specificity protein phosphatase 6 (Rattus norvegicus, UniProt Q64346); assay type: functional;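 note: confirmatory in vitro dose-response testing of MKP-3 inhibition; recombinant His-tagged MKP-3 made in E. coli BL21 with OMFP substrate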
T2 sequence (Q64346 whole entry): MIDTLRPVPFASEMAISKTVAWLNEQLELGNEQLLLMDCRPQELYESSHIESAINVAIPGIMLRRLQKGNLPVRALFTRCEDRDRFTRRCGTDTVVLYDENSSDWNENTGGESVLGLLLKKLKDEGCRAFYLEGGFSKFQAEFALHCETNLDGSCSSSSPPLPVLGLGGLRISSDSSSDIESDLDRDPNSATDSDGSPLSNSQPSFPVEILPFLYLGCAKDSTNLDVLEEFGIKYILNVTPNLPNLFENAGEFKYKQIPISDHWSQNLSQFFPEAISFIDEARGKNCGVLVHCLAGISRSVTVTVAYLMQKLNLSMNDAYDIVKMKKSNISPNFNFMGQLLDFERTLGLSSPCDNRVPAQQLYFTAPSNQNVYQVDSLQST

[19] = target: T3, Tyrosine-protein phosphatase non-receptor type 7 (Homo sapiens, UniProt P35236); experiment: redox-dependent HePTP inhibition, mechanism study, biochemical, fluorescence (AID 2068); assay type: functional
T3 sequence (P35236 whole entry): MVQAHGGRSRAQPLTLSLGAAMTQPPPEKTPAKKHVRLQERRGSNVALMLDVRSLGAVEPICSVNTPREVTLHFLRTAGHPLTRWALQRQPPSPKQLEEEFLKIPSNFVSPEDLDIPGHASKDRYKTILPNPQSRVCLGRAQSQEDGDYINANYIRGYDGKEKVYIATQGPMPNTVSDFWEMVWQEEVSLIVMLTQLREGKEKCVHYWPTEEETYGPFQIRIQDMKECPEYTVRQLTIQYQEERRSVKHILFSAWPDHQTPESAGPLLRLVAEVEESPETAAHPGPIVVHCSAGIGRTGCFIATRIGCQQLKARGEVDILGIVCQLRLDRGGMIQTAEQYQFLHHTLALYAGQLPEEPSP

[20] = target: T1, Dual specificity protein phosphatase 3; experiment: SAR VHR1 absorbance Assay for In Vitro dose response studies. [Related pubchem assays (depositor defined):AID1654, AID1661, AID1878, AID1992, AID2004]

Chain of X-box-binding protein 1 (P17861 whole entry): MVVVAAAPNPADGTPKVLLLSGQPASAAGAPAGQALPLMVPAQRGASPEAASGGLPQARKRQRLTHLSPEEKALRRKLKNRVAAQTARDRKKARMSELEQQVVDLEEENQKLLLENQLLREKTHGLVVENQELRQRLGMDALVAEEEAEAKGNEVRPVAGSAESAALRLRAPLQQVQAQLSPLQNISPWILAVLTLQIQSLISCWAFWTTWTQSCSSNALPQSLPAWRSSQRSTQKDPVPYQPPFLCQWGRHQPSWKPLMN

Structure (SMILES): Cc1ccc(-c2ccc(/C=C(\C#N)C(=O)Nc3cc(C)nn3-c3ccccc3)o2)cc1
- Absolute IC50 (XBP1) [1]: 10 µM

Structure (SMILES): CC(=O)OCc1ccc(Oc2c(Cl)cnn(-c3ccc(C(C)C)cc3)c2=O)cc1
- IC50 [2]: 3.5 µM (active)
- IC50 [3]: 1.6 µM (active)

Structure (SMILES): CC1(C)CC(=O)N(c2ccc(NC(=O)c3ccccn3)cc2Cl)C1=O
- EC50 [4]: 2.32 µM (active)
- EC50 [5]: 1.48 µM (active)

Structure (SMILES): CCN(CC)c1ccc(-c2nn3c(-c4[nH]nc5c4CCC5)nnc3s2)cc1
- IC50 [6]: 61.1 µM (inactive)
- IC50 [7]: 0.667 µM (active)
- EC50 [8]: 0.972 µM (active)
- EC50 [9]: 0.859 µM (active)
- EC50 [10]: 1.21 µM (active)
- IC50 [11]: > 20 µM (inactive)
- EC50 [12]: 0.75 µM (active)
- EC50 [13]: 0.294 µM (active)
- EC50 [14]: 1.06 µM (active)
- EC50 [15]: 0.377 µM (active)
- EC50 [16]: < 0.1 µM (active)

Structure (SMILES): S=C(NCc1ccccc1)c1cn(CCOc2ccccc2)c2ccccc12
- IC50 [17]: > 100 µM (inactive)
- IC50 [18]: > 100 µM (inactive)
- IC50 [19]: > 100 µM (inactive)
- IC50 [20]: > 100 µM (inactive)
